# Laboratory results taken from publication PMC12751012, “Nanoscale Direct-to-Biology Optimization and Structural Insights into Selective S. aureus TrmD Inhibitors” (Journal of Medicinal Chemistry, 2025).
# Biological target: T1, S. aureus TrmD (Staphylococcus aureus, UniProt Q2FZ43)
# T1 construct: made in house; host or cells: E. coli BL21
# T1 sequence (Q2FZ43 1-245): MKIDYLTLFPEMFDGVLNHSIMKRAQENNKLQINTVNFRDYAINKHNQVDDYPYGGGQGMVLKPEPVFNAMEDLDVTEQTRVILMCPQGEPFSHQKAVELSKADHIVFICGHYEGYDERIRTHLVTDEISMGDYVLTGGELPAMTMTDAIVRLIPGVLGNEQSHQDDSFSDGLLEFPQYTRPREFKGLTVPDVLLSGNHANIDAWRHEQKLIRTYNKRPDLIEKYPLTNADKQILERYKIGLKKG
# Test: nanoSAR direct-to-biology FP displacement screening of crude triazoles
# Format: binding
# Conditions: crude triazole at 1 μM, assuming full conversion; 500 nM TrmD, 10 nM tracer 4; read-out: % displaced tracer
# Text: Next, we conducted an S. aureus TrmD-targeting nanoSAR study. For this, alkyne 7 was reacted on a 96 nmol scale with an in-house diversity-oriented azide library (N = 320, mean pairwise Tanimoto similarity = 0.11) designed to cover a large chemical fragment space, generating a panel of 320 crude triazoles ready for FP assay investigation. The composition of the azide library is designed to be chemically diverse in several categories, including physicochemical properties such as polar surface area, lipophilicity, and the number of hydrogen bond donors and acceptors, as well as structural features like the number of aromatic rings (Figure S23). A complete list of chemical structures included in the azide library can be found in Table S4. In situ reaction conditions for CuAAC were adapted from Gehrtz et al., utilizing CuSO4, which is reduced in situ to Cu(I) by sodium ascorbate and stabilized by TBTA. Degassed water and DMSO (1:1) were used as solvents to prevent the oxidation from Cu(I) to Cu(II). For the synthesis of the triazole library, a master mix was prepared, containing all reaction components except the azides. All reactions were started by the addition of the respective azide in 24 μL at a final product concentration of 4 mM (96 nmol). Reaction mixtures were incubated for 16 h at room temperature and under an argon atmosphere in sealed 96-well plates.
# For FP assay screening, we used 500 nM of S. aureus TrmD and 10 nM of tracer 4 in a total volume of 40 μL in 96-well plates. We performed control measurements and defined 10 nM of tracer 4 in buffer as 100% displacement and the DMSO control as 0% tracer displacement. […] The results of the FP screening were visualized in a waterfall plot and plate-based heatmaps (Figure , Figure S3).
# Fluorescence polarization (FP) assays were performed as follows. The assays for H. influenzae TrmD have been described previously. All assays were conducted in technical triplicate using black 96-well half area plates. For the FP assays, a tracer (20 nM Cy5TPD for E. coli and H. influenzae TrmD, 10 nM tracer 4 for S. aureus TrmD) was mixed with the respective enzyme (2 μM E. coli TrmD, 2 μM H. influenzae TrmD, 500 nM S. aureus TrmD) in buffer (E. coli and H. influenzae TrmD: 50 mM HEPES, 500 mM NaCl, 5% Glycerol, pH 7.5, S. aureus TrmD: 40 mM Tris HCl, 100 mM NaCl, 10 mM MgCl2, 5% Glycerol, pH 7.5). The compounds were added in varying concentrations for K D-value determination. […] The Z-factor for tracer 4 was determined by measuring 48 replicates of the free tracer (positive controls, PC) and 48 replicates of a mixture of enzyme and tracer (negative controls, NC). The Z-factor is defined in terms of the means (μ) and standard deviations (σ) of the positive and negative controls and calculated as Z = 1–(3*(σnc + σpc)/(μnc–μpc)). […] Polarization values (mP) were determined from polarization-specific parallel and orthogonal fluorescence intensities. K D-values were calculated in GraphPad Prism 8.0.1 using the four-parameter Hill equation: y(% tracer bound) = bottom + ([ligand]-slope) × (top–bottom)/([ligand]-slope + K Dslope).
# A commercial azide diversity library (Enamine) containing 320 azides at a concentration of 100 mM in DMSO in a 96-well tube rack was employed for this nanoSAR study. For the reaction of the azides with alkyne 7 via CuAAC, a master mix was prepared. […] The solvents were degassed with argon to avoid oxidation of the copper(I) during the reaction. To each well of a 96-well PCR plate (Applied Biosystems MicroAmp) were added 23 μL of the master mix and 1 μL of the 100 mM azide stock. The final concentrations in the Mastermix were: 8.7 mM sodium ascorbate (8.3 mM in reaction well), 1.1 mM TBTA (1.0 mM in reaction well), 4.3 mM 7 (4.1 mM in reaction well), 1.3 mM CuSO4×5 H2O (1.2 mM in reaction well).
row,SMILES,inhibition at 1 µM
1,"O=c1[nH]cnc2[nH]cc(-c3cn(C[C@@H]4CCCC4(F)F)nn3)c12 [Compound 01F12, F[C@@]1(F)[C@H](CN2N=NC(C=3C=4C(=O)NC=NC4NC3)=C2)CCC1]",79%
2,"NS(=O)(=O)c1ccccc1-n1cc(-c2c[nH]c3nc[nH]c(=O)c23)nn1 [Compound 01G01, S(=O)(=O)(N)c1c(N2N=NC(C=3C=4C(=O)NC=NC4NC3)=C2)cccc1]",42%
3,"CCc1nc(C)c(Cn2cc(-c3c[nH]c4nc[nH]c(=O)c34)nn2)o1 [Compound 01G02, O=C1NC=NC=2NC=C(C=3N=NN(C3)CC=4OC(=NC4C)CC)C12]",71%
4,"CC(C)CN1CCO[C@H](Cn2cc(-c3c[nH]c4nc[nH]c(=O)c34)nn2)C1 [Compound 01G03, O=C1NC=NC=2NC=C(C=3N=NN(C3)C[C@H]4OCC[N@H+](C4)CC(C)C)C12]",46%
5,"O=c1[nH]cnc2[nH]cc(-c3cn(-c4ccc5c(c4)CNCC5)nn3)c12 [Compound 01G04, O=C1NC=NC=2NC=C(C=3N=NN(c4cc5c(cc4)CC[NH2+]C5)C3)C12]",33%
6,"O=c1[nH]cnc2[nH]cc(-c3cn(CCCO)nn3)c12 [Compound 01G05, O=C1NC=NC=2NC=C(C=3N=NN(C3)CCCO)C12]",32%
7,"O=c1[nH]cnc2[nH]cc(-c3cn(Cc4cc(C(F)F)on4)nn3)c12 [Compound 01G06, FC(F)C=1ON=C(C1)CN2N=NC(C=3C=4C(=O)NC=NC4NC3)=C2]",38%
8,"O=C(c1ccco1)n1cc(-c2c[nH]c3nc[nH]c(=O)c23)nn1 [Compound 01G07, O=C(N1N=NC(C=2C=3C(=O)NC=NC3NC2)=C1)C=4OC=CC4]",28%
9,"COC(=O)c1ccc(Cn2cc(-c3c[nH]c4nc[nH]c(=O)c34)nn2)o1 [Compound 01G08, O=C(OC)C=1OC(=CC1)CN2N=NC(C=3C=4C(=O)NC=NC4NC3)=C2]",44%
10,"O=c1[nH]cnc2[nH]cc(-c3cn(-c4ccc(O)cc4)nn3)c12 [Compound 01G09, O=C1NC=NC=2NC=C(C=3N=NN(c4ccc(O)cc4)C3)C12]",23%
11,"O=c1[nH]cnc2[nH]cc(-c3cn([C@@H]4C[C@H]5CC[C@@H](C4)N5)nn3)c12 [Compound 01G10, O=C1NC=NC=2NC=C(C=3N=NN(C3)[C@@H]4C[C@@H]5[NH2+][C@H](C4)CC5)C12]",44%
12,"C[C@H](c1ccc(F)cc1Cl)n1cc(-c2c[nH]c3nc[nH]c(=O)c23)nn1 [Compound 01G11, Clc1c(ccc(F)c1)[C@H](N2N=NC(C=3C=4C(=O)NC=NC4NC3)=C2)C]",56%
13,"CS(=O)(=O)NC(=O)Cn1cc(-c2c[nH]c3nc[nH]c(=O)c23)nn1 [Compound 01G12, S(=O)(=O)(NC(=O)CN1N=NC(C=2C=3C(=O)NC=NC3NC2)=C1)C]",27%
14,"CC(F)(F)c1cccc(Cn2cc(-c3c[nH]c4nc[nH]c(=O)c34)nn2)n1 [Compound 01H01, FC(F)(c1nc(ccc1)CN2N=NC(C=3C=4C(=O)NC=NC4NC3)=C2)C]",63%
15,"CC1(Cn2cc(-c3c[nH]c4nc[nH]c(=O)c34)nn2)COC1 [Compound 01H02, O=C1NC=NC=2NC=C(C=3N=NN(C3)CC4(COC4)C)C12]",58%
16,"Cc1ccc(Cn2cc(-c3c[nH]c4nc[nH]c(=O)c34)nn2)o1 [Compound 01H03, O=C1NC=NC=2NC=C(C=3N=NN(C3)CC=4OC(=CC4)C)C12]",33%
17,"O=c1[nH]cnc2[nH]cc(-c3cn(Cc4cc(C(F)(F)F)on4)nn3)c12 [Compound 01H04, FC(F)(F)C=1ON=C(C1)CN2N=NC(C=3C=4C(=O)NC=NC4NC3)=C2]",22%

row,SMILES,inhibition at 1 µM
1,"O=C1c2ccccc2C(=O)N1CCn1cc(-c2c[nH]c3nc[nH]c(=O)c23)nn1 [Compound 01H05, O=C1N(C(=O)c2c1cccc2)CCN3N=NC(C=4C=5C(=O)NC=NC5NC4)=C3]",13%
2,"Cc1nc2cc(-n3cc(-c4c[nH]c5nc[nH]c(=O)c45)nn3)ccc2s1 [Compound 01H06, S1c2c(N=C1C)cc(N3N=NC(C=4C=5C(=O)NC=NC5NC4)=C3)cc2]",26%
3,"O=c1[nH]cnc2[nH]cc(-c3cn(CCOC4CCSCC4)nn3)c12 [Compound 01H07, S1CCC(OCCN2N=NC(C=3C=4C(=O)NC=NC4NC3)=C2)CC1]",54%
4,"O=C1CC[C@@H](N2Cc3cc(-n4cc(-c5c[nH]c6nc[nH]c(=O)c56)nn4)ccc3C2=O)C(=O)N1 [Compound 01H08, O=C1N([C@H]2C(=O)NC(=O)CC2)Cc3c1ccc(N4N=NC(C=5C=6C(=O)NC=NC6NC5)=C4)c3]",23%
5,"CCN(CC)CCn1cc(-c2c[nH]c3nc[nH]c(=O)c23)nn1 [Compound 01H09, O=C1NC=NC=2NC=C(C=3N=NN(C3)CC[NH+](CC)CC)C12]",27%
6,"O=c1[nH]cnc2[nH]cc(-c3cn(-c4cc(F)cc(Cl)c4)nn3)c12 [Compound 01H10, Clc1cc(F)cc(N2N=NC(C=3C=4C(=O)NC=NC4NC3)=C2)c1]",12%
7,"O=c1[nH]cnc2[nH]cc(-c3cn(CCN4CCC(O)CC4)nn3)c12 [Compound 01H11, O=C1NC=NC=2NC=C(C=3N=NN(C3)CC[N@H+]4CC[C@H](O)CC4)C12]",38%
8,"CCOP(=O)(CCCn1cc(-c2c[nH]c3nc[nH]c(=O)c23)nn1)OCC [Compound 01H12, P(=O)(OCC)(OCC)CCCN1N=NC(C=2C=3C(=O)NC=NC3NC2)=C1]",33%
9,"COc1ccnc(-n2cc(-c3c[nH]c4nc[nH]c(=O)c34)nn2)n1 [Compound 02A01, O=C1NC=NC=2NC=C(C=3N=NN(c4nc(OC)ccn4)C3)C12]",19%
10,"NC[C@H]1CCC[C@@H](Cn2cc(-c3c[nH]c4nc[nH]c(=O)c34)nn2)C1 [Compound 02A02, O=C1NC=NC=2NC=C(C=3N=NN(C3)C[C@H]4C[C@@H](C[NH3+])CCC4)C12]",31%
11,"CC(C)CSCCCn1cc(-c2c[nH]c3nc[nH]c(=O)c23)nn1 [Compound 02A03, S(CC(C)C)CCCN1N=NC(C=2C=3C(=O)NC=NC3NC2)=C1]",35%
12,"COc1ccc(C(F)(F)F)cc1-n1cc(-c2c[nH]c3nc[nH]c(=O)c23)nn1 [Compound 02A04, FC(F)(F)c1cc(N2N=NC(C=3C=4C(=O)NC=NC4NC3)=C2)c(OC)cc1]",20%
13,"O=c1[nH]cnc2[nH]cc(-c3cn(-c4cccc5cn[nH]c45)nn3)c12 [Compound 02A05, O=C1NC=NC=2NC=C(C=3N=NN(c4c5NN=Cc5ccc4)C3)C12]",1.22%
14,"O=c1[nH]cnc2[nH]cc(-c3cn(S(=O)(=O)c4ccc5c(c4)CCO5)nn3)c12 [Compound 02A06, O=S(C1=CC2=C(OCC2)C=C1)(N3N=NC(C4=CNC(N=CN5)=C4C5=O)=C3)=O]",-1.83%
15,"O=c1[nH]cnc2[nH]cc(-c3cn(C[C@H]4COc5ccccc5O4)nn3)c12 [Compound 02A07, O=C1NC=NC=2NC=C(C=3N=NN(C3)C[C@@H]4Oc5c(OC4)cccc5)C12]",81%
16,"O=c1[nH]cnc2[nH]cc(-c3cn(C4CCCCC4)nn3)c12 [Compound 02A08, O=C1NC=NC=2NC=C(C=3N=NN(C3)C4CCCCC4)C12]",11%
17,"O=c1[nH]cnc2[nH]cc(-c3cn(Cc4cc(=O)n5nccc5[nH]4)nn3)c12 [Compound 02A09, O=C1N2N=CC=C2NC(=C1)CN3N=NC(C=4C=5C(=O)NC=NC5NC4)=C3]",12%
